Data on 7 compounds can be found in patent US20210275415A1, “AN ANTIMICROBIAL COMPOSITION” (Conopco, Inc., d/b/a UNILEVER, priority 2017, published 2021).

One assay deals with Staphylococcus aureus. Put plainly: ΣFIC assay against Staphylococcus aureus (MIC by alamar blue, checkerboard). It counts as cell-based, S. aureus (ATCC 12600). The settings on record: for MIC: Staphylococcus aureus, 24 h, read-out: Minimum Inhibition Concentration (MIC); for interaction of the combination (synergy/additivity) in words: conclusion from Table 2. As for the experimental part: Effect of sphingosine with triclosan as well as triclocarban was also tested. A brief description of the method is given below.
Methods: ΣFIC assay against Staphylococcus aureus
They are then incubated at 37° C. overnight (16 hours) with shaking. The overnight culture is diluted using TSB to 5*10^4 cell/ml.
Zinc pyrithione was serially diluted (2-fold) to prepare in a range of 0.5 to 500 ppm in the growth medium. The AML compound was serially diluted (2-fold) to prepare in a range of 16 to 1,000 ppm for sapienic acid, and palmitoleic acid; and 4 to 250 ppm for other AMLs in growth medium. Triclosan was serially diluted (2-fold) to prepare in a range of 0.2 to 200 ppm and triclocarban in a range of 2 to 2000 ppm in growth medium.
Binary combinations of ZPTO or triclosan/triclocarban and the AML compound were prepared in 96-well plate by mixing 20 μl of zinc pyrithione solution with 20 μl of AML compound. The solution in each well were further mixed with 160 μl of TSB and 20 μl of S. aureus. The final cell density in the testing plate is around 4*10^4 cell/ml, and the final concentration of actives in each well of the 96-well plate were shown below.
Then 20 μl of alamar blue (0.01%) was added into each well, and the plate was incubated at 37° C. for one day to observe the color change. Red color indicates microbial growth and the non-changing blue color indicates no growth.
(§1) The MIC is defined as the absolute lowest concentration of active that provides complete microbial growth inhibition as indicated by the blue color of alamar blue under the tested condition.
The differing behaviors of inhibitory antimicrobials in isolation and mixtures have been widely explored using the concept of the Fractional Concentration (FC) and Fractional Inhibitory Concentration (FIC). The parameter can be defined as follows: […]
(§2) These relationships can be expressed mathematically by summing the fractional MIC values for all the components present in the mixture to give the “fractional inhibition index”. There is no consistent approach in the academic or patent literature in defining precise limiting ΣFIC values that differentiate synergy from additivity or antagonism. In this study, we have adopted a liberal approach defining any binary mixture with ΣFIC<0.9 as showing evidence of synergistic behavior.
A general note: Resazurin is reduced to fluorescent resorufin, in cell work by metabolically active cells.

The subject of another assay is Malassezia furfur. Put plainly: ΣFIC assay against Malassezia furfur (MIC by alamar blue, checkerboard). It counts as cell-based, M. furfur (CBS 1878). The settings on record: M. furfur, Pityrosporum Broth, 32° C., lowest concentration giving complete growth inhibition (alamar blue stays blue), active alone; for MIC: Malassezia furfur, read-out: Minimum Inhibition Concentration (MIC). As for the experimental part: Synergistic interaction between ZPTO and the AML compounds was determined using the ΣFIC assay against Malassezia furfur. A brief description of the method is given below.
Method: ΣFIC assay against Malassezia furfur
They are then incubated at 32° C. for 48 hours with shaking. Then, 1 ml of the first broth culture is transferred into 9 ml of fresh PB and incubated at 32° C. for 48 hours with shaking. The final culture should contain 2 to 6×10^6 cells/ml. This is achieved by diluting using PB to 5*10^5 cell/ml.
Binary combinations of ZPTO and the AML compound were prepared in 96-well plate by mixing 20 μl of zinc pyrithione solution with 20 μl of AML compound. The solution in each well were further mixed with 160 μl of PB and 20 μl of M. furfur. The final cell density in the testing plate is around 5*10^4 cell/ml, and the final concentration of actives in each well of the 96-well plate were shown below.
The plate was incubated at 32° C. for one day. Then 20 μl of alamar blue (0.01%) was added into each well with a further incubation for one day to observe the color change. Red color indicates microbial growth and the non-changing blue color indicates no growth.
as §1
The differing behaviour of inhibitory antimicrobials in isolation and mixtures have been widely explored using the concept of the Fractional Concentration (FC) and Fractional Inhibitory Concentration (FIC). The parameter can be defined as follows: […]
as §2

The mark [1] stands for this setting: S. aureus, TSB, 37° C. one day, lowest concentration giving complete growth inhibition (alamar blue stays blue), active alone.

Molecules are shown by their SMILES. Where two headings read alike, the source gives them in different places.

For the compound `CCCCCCCCCCCCCCC[C@@H](O)[C@@H](N)CO` [dihydrosphingosine], the results for the “Minimum Inhibition Concentration (MIC)” value in the assay on Staphylococcus aureus (setting [1]) and in the assay on Malassezia furfur were 6.3 ppm and 1000 ppm, respectively. For `CCCCCC/C=C\CCCCCCCC(=O)O` [palmitoleic acid], the MIC in the assay with Malassezia furfur is 5000 µg/mL.

As for `CCCCCCCCCCCCCC[C@@H](O)[C@@H](O)[C@@H](N)CO` [phytosphingosine], in the assay with Malassezia furfur, the MIC was found to be 125 µg/mL. For `CCCCCCCCC/C=C\CCCCC(=O)O` [sapienic acid], the “Minimum Inhibition Concentration (MIC)” value in the assay on Staphylococcus aureus (setting [1]) came out at 25 ppm. Consider `CCCCCCCCCCCCC/C=C/[C@@H](O)[C@@H](N)CO` [sphingosine], for which the MIC with Staphylococcus aureus (setting [1]) worked out at 3.1 µg/mL; in the assay on Malassezia furfur, 1000 µg/mL.

As to `O=C(Nc1ccc(Cl)cc1)Nc1ccc(Cl)c(Cl)c1` [triclocarban], the “interaction of the combination (synergy/additivity) in words” value in the assay with Staphylococcus aureus (S. aureus) is on record as “additive but not synergistic effect”. Further, the MIC in the assay on Staphylococcus aureus (setting [1]) is 3.13 µg/mL. Consider `Oc1cc(Cl)ccc1Oc1ccc(Cl)cc1Cl` [triclosan], for which, in the assay on Staphylococcus aureus (S. aureus), the “interaction of the combination (synergy/additivity) in words” value was “additive but not synergistic effect”. Moreover, in the assay with Staphylococcus aureus, the MIC was 0.16 µg/mL.
